Laboratory results as given in PubChem BioAssay (NCI).
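Cells were grown in 96-well plates and exposed to each compound for 48 hours at five concentrations; endpoints were interpolated linearly between bracketing concentrations, or set to the highest concentration if not reached. GI50 = concentration required for 50% inhibition of growth. TGI: total growth inhibition.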

How the values were obtained:
Assay in all cases: NCI anticancer screen, dose series, 48 h
NCI-H23 lung = system: NCI-H23 lung
T-47D breast = system: T-47D breast
SN12C renal = system: SN12C renal
MDA-N = system: MDA-N
PC-3 prostate = system: PC-3 prostate
U251 CNS = system: U251 CNS
OVCAR-3 ovarian = system: OVCAR-3 ovarian
A498 renal = system: A498 renal
OVCAR-5 ovarian = system: OVCAR-5 ovarian

| SMILES | TGI (NCI-H23 lung) | TGI (T-47D breast) | TGI (SN12C renal) | TGI (MDA-N) | TGI (PC-3 prostate) | TGI (U251 CNS) | TGI (OVCAR-3 ovarian) | TGI (A498 renal) | TGI (OVCAR-5 ovarian) | GI50 (NCI-H23 lung) | GI50 (T-47D breast) | GI50 (SN12C renal) | GI50 (PC-3 prostate) | GI50 (U251 CNS) | GI50 (OVCAR-3 ovarian) | GI50 (A498 renal) | GI50 (OVCAR-5 ovarian) |
| --- | --- | --- | --- | --- | --- | --- | --- | --- | --- | --- | --- | --- | --- | --- | --- | --- | --- |
| CNc1ncnc(Sc2nc(N)nc3nc[nH]c23)c1[N+](=O)[O-] | 13.9 µM | 16.8 µM | 11.9 µM | 14.9 µM | 22 µM | 26.9 µM | 12 µM | > 100 µM | > 77.4 µM | – | – | – | – | – | – | – | – |
| CCC1(C)C=Cc2c(cc(OC)c3c(=O)c4ccccc4n(C)c23)O1 (centres undefined) | > 10 µM | > 10 µM | > 10 µM | > 10 µM | > 10 µM | > 10 µM | > 10 µM | > 10 µM | > 10 µM | – | – | – | – | – | – | – | – |
| CN(C)CCCNc1c(O)c2c(c(O)c1Cl)C(=O)C=CC2=O | 3.22 µM | 4.28 µM | 3.2 µM | 6.38 µM | 6.83 µM | 3.46 µM | 6.6 µM | > 10 µM | 3 µM | – | – | – | – | – | – | – | – |
| OC1(c2ccccc2)CC2CCC(C1)N2CCc1ccccc1 (centres undefined) | > 100 µM | > 100 µM | > 100 µM | > 100 µM | > 100 µM | > 100 µM | > 100 µM | 56.4 µM | > 100 µM | – | – | – | – | – | – | – | – |
| O=c1[nH]c2ccc(C(F)(F)F)cc2nc1-c1ccccc1 | > 100 µM | > 100 µM | > 100 µM | > 100 µM | > 100 µM | – | > 100 µM | > 100 µM | > 100 µM | – | – | – | – | – | – | – | – |
| CCOC(=O)C1C(=O)CC(O)(OCC)C(C(=O)OCC)C1c1ccc(OC)cc1 (centres undefined) | > 100 µM | > 100 µM | > 100 µM | > 100 µM | > 100 µM | > 100 µM | > 100 µM | > 100 µM | > 100 µM | – | – | – | – | – | – | – | – |
| Cc1cc2nc3n[nH]c(N)c3nc2cc1C | > 100 µM | – | > 100 µM | > 100 µM | > 100 µM | > 100 µM | – | > 100 µM | > 100 µM | – | – | – | – | – | – | – | – |
| CCOc1c2ccsc2c(OCC)c2ccsc12 | > 78 µM | > 100 µM | > 100 µM | 4.83 µM | > 100 µM | > 100 µM | 61.1 µM | > 100 µM | > 100 µM | – | – | – | – | – | – | – | – |
| CCOC(=O)C1(C(=O)OCC)C[C@]23OCCC(=O)[C@H]2[C@H]2C(=O)OC(C)(C)O[C@]23C1 | > 100 µM | > 100 µM | > 100 µM | > 100 µM | > 100 µM | > 100 µM | > 100 µM | > 100 µM | > 100 µM | – | – | – | – | – | – | – | – |
| CCCC1NC(=O)C(CC(C)C)NC(=O)c2cccc(n2)C(=O)NC(CC(C)C)C(=O)NC(CCC)C(=O)NC(C(=O)OC)CCCCNC1=O (centres undefined) | > 100 µM | > 100 µM | > 100 µM | > 100 µM | 91.3 µM | > 100 µM | > 100 µM | > 100 µM | > 100 µM | – | – | – | – | – | – | – | – |
| CCN(CC)C(=S)SS(=O)(=O)c1ccccc1C(=O)O | > 100 µM | > 100 µM | > 100 µM | > 100 µM | > 100 µM | > 100 µM | > 100 µM | > 100 µM | > 100 µM | – | – | – | – | – | – | – | – |
| CC(=O)OCC1OC(On2ccccc2=S)C(OC(C)=O)C(OC(C)=O)C1OC(C)=O (centres undefined) | > 100 µM | > 100 µM | > 100 µM | > 100 µM | > 100 µM | > 100 µM | > 100 µM | > 100 µM | > 100 µM | – | – | – | – | – | – | – | – |
| CCc1ccc(-c2nnc(COc3ccc(-c4nc5ccc(C)cc5[nH]4)cc3OC)o2)cc1 | 54.4 µM | 5.22 µM | 5.52 µM | – | > 100 µM | 5.79 µM | 4.49 µM | 4.72 µM | > 100 µM | 4.52 µM | 2.15 µM | 2.2 µM | 2.96 µM | 2.32 µM | 2.23 µM | 1.97 µM | 5.21 µM |
| CNC(=S)/C(=N\Nc1nc[nH]c1C(N)=O)C(N)=S | > 94.7 µM | > 89.3 µM | 18.9 µM | > 63 µM | > 100 µM | > 82.8 µM | > 50.2 µM | > 75.6 µM | > 100 µM | – | – | – | – | – | – | – | – |
| CCOC(=O)c1c(C)n(Cc2ccccc2)c(=O)c2ccccc2c(=O)c2c(=O)ccc(=O)c1=2 | > 100 µM | 86.3 µM | > 100 µM | > 100 µM | > 100 µM | > 100 µM | > 100 µM | > 100 µM | > 100 µM | – | – | – | – | – | – | – | – |
| COc1ccc(/C=C2\C=Cc3ccccc32)cc1OC | > 100 µM | > 100 µM | > 100 µM | > 100 µM | > 100 µM | > 100 µM | > 100 µM | > 100 µM | > 100 µM | – | – | – | – | – | – | – | – |
| Cc1[nH]c2ncn3nc(C(Cl)(Cl)Cl)nc3c2c1Cc1ccccc1 | > 100 µM | > 100 µM | > 100 µM | > 100 µM | > 100 µM | > 100 µM | > 100 µM | > 100 µM | > 100 µM | – | – | – | – | – | – | – | – |
| O=C(OCCN=C1c2ccccc2CCc2ccccc21)c1cc([N+](=O)[O-])cc([N+](=O)[O-])c1 | > 31.6 µM | – | > 31.6 µM | > 31.6 µM | > 31.6 µM | > 100 µM | > 31.6 µM | – | > 31.6 µM | – | – | – | – | – | – | – | – |
| CSC1=N/C(=C\c2ccc(C)cc2)C(=O)N1CN1CCOCC1 | > 100 µM | – | > 100 µM | > 100 µM | > 100 µM | > 100 µM | > 100 µM | > 100 µM | > 100 µM | – | – | – | – | – | – | – | – |
| S=c1ssc2c3ssc(=S)c3n(Cc3ccccc3)c12 | > 100 µM | > 100 µM | > 100 µM | > 100 µM | > 100 µM | > 100 µM | > 100 µM | > 100 µM | > 100 µM | – | – | – | – | – | – | – | – |
| CCOC(=O)c1nc2cc(N3CCOCC3)c(F)cc2[nH]c1=O | > 100 µM | > 100 µM | > 100 µM | > 100 µM | > 100 µM | > 100 µM | > 100 µM | > 100 µM | > 100 µM | – | – | – | – | – | – | – | – |
| CN1CCCN2CCN(C)CCN(CC1)CC2 | > 100 µM | > 100 µM | > 100 µM | > 100 µM | > 100 µM | > 100 µM | > 100 µM | > 100 µM | > 100 µM | – | – | – | – | – | – | – | – |
